Legend:
AI15.F5 TCR = test: TCR transfectant peptide recognition, IL-2 release (58 α−β− cells, RMA-S/K^d presenters); assay type: cell-based, mouse; conditions: FIG. 2
Text: (§1) T cell receptors from the previously isolated NOD-derived β cell-autoreactive class I MHC-restricted T cell clones AI4, AI12.B1.1, AI12.B1.2, AI12.B1.3, AI15.A10, AI15.F5 (DiLorenzo et al., 1998), and 8.3 (Verdaguer et al., 1997) were expressed in the TCR^− T cell hybridoma 58α^−β^− (engineered to express the TCR ζ chain and CD8αβ and provided by H.-C. Chang, Dana Farber, Boston, Mass., USA) as described (Serreze et al., 2001). TCR expression was verified by flow cytometric analysis of growing clones using an antibody to CD3ε (145-2C11). RMA-S/K^d cells incubated overnight at 28° C. were used to present exogenously added synthetic peptides at concentrations as indicated in the figures. Peptide recognition by the TCR transfectants was measured by IL-2 production as previously described (Serreze et al., 2001).

AI12.B1.3 TCR = test: as above; assay type: cell-based, mouse; conditions: FIG. 2
Text: as §1

female NOD mice = test: Repeated peptide treatment of female NOD mice, diabetes development and islet-associated CD8+ T-cells; assay type: in vivo, mouse
Experimental: (§2) Cohorts of 3-to-4 week-old female NOD mice were injected with 1-100 μg of peptide in PBS intraperitoneally. This was repeated every 2 weeks until the 7-8th week, and every 3 weeks thereafter. Mice were monitored for development of hyperglycemia until at least the 28th week of age. The 8.3-CD8+ T-cell tolerogenic activity of APLs was determined by treating 8-15 wk-old 8.3-NOD mice with one i.p. injection of 100 μg of peptide. […] Mice were sacrificed a week after treatment, and their spleens analyzed for presence of 8.3-CD8+ T-cells by flow cytometry.
We next investigated whether the anti-diabetogenic activity of the above APLs was a function of “avidity”, as defined not only by the affinity of individual peptide/MHC complexes for specific TCRs, but also by the absolute number of peptide/MHC complexes that are available for recognition (i.e. dose of peptide). This was done by treating cohorts of female NOD mice with repeated injections of TUM (negative control), NRP-I4, NRP-A7 and NRP-V7 (in PBS) over a wide dose range, and by following the mice for development of diabetes (FIG. 7A, top). Starting at 3-4 weeks of age, mice received one injection of peptide i.p. every 2 (first three doses) or 3 weeks after initiation of treatment. Mice were sacrificed at diabetes onset or at the end of the follow-up period (28-32 weeks), to investigate the effects of treatment on the size and tetramer-binding avidity of the islet-associated IGRP206-214-reactive CD8+ T-cell subpopulation (FIG. 7A, bottom).

8.3-CD8+ T-cells = test: Proliferation and cytokine secretion of naive splenic 8.3-CD8+ T-cells with peptide-pulsed NOD splenocytes; assay type: cell-based, mouse; conditions: FIG. 5, peptide 0.01-1 μM
Experimental: Naïve or NRP-A7-differentiated (see below) splenic CD8+ T-cells from 8.3-NOD mice (2×10^4/well) were incubated, in duplicate, with peptide-pulsed (0.01, 0.1 and 1 μM), γ-irradiated (3,000 rad) NOD splenocytes (10^5/well) for 3 days at 37° C. in 5% CO2. Cultures were pulsed with 1 μCi of (^3H)-thymidine during the last 18 hours of culture and harvested.
Naïve splenic CD8+ T-cells from 8.3-NOD mice (2×10^4/well) were incubated with peptide-pulsed (0.001, 0.01, 0.1, 1 and/or 10 μM) γ-irradiated NOD splenocytes (10^5/well) in 96-well plates for 48 hours at 37° C. Short-term islet-derived T-cell lines from peptide-treated or unmanipulated NOD mice (adjusted at 2×10^4 CD8+ T-cells/well) were tested the same way, but using 10 μM of peptide. The supernatants (100 μl/well) were assayed in duplicate for IL-2, IL-4, and/or IFN-γ content by ELISA using commercially available kits (Genzyme Diagnostics, Cambridge, Mass.).

[1] = tested on: 8.3-CD8+ splenocytes of 8.3-NOD mice; test: Tolerogenic activity of APLs in 8.3-NOD mice; assay type: in vivo, mouse; conditions: single injection 100 μg in PBS, analysis 7 days later
Experimental: as §2

[2] = tested on: T-cells from the islets of 12-week-old female NOD mice; test: Interferon-γ ELISpot of T-cells cultured from NOD islets (Example 4); assay type: cell-based, mouse
Experimental: Using procedures described in Example 1, we have cultured T-cells from the islets of 12-week-old female NOD mice. T-cells were assayed for recognition of several different IGRP peptides by interferon-γ ELISpot.

H-2Db = molecular target: T1, H-2Db (Mus musculus, UniProt P01899); test: Presentation of IGRP peptide by MHC class I molecule
T1 sequence (P01899 25-362): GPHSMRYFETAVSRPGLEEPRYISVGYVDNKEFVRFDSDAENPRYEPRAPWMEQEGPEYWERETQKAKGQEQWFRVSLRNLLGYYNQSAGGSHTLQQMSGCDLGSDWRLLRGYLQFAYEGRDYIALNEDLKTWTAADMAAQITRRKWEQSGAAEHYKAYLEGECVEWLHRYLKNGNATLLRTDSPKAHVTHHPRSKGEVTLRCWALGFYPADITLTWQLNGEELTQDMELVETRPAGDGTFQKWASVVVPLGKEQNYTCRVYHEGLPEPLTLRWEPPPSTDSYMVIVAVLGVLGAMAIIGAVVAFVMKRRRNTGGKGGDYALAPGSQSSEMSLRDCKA
T1 sequence (P01887 21-119 partner): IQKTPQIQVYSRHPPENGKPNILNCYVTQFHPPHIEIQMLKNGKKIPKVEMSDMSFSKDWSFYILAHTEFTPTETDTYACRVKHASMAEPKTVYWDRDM

KYNKANVFL [NRP-V7, reference compound]
recognition by AI15.F5 (IL-2 release) (AI15.F5 TCR): responded
recognition by AI12.B1.3 (IL-2 release) (AI12.B1.3 TCR): recognized
anti-diabetogenic activity (female NOD mice; any dose): not significantly protective
protection from diabetes by chronic treatment (discussion summary) (female NOD mice; intermediate doses NRP-A7, high doses NRP-I4, low or high doses NRP-V7, high doses IGRP206-214): only afforded marginal protection from disease
NRP-V7-reactive CD8+ cells in the islets (female NOD mice; over a range of doses): almost completely devoid
agonistic activity on 8.3-CD8+ T-cells (8.3-CD8+ T-cells): superior agonistic activity
8.3-CD8+ splenocytes after treatment [1]: fewer 8.3-CD8+ splenocytes

FLWSVFWLI [IGRP152-160]
T-cell reactivity by interferon-γ ELISpot [2]: Reactivity was found

CALTSLTTM [IGRP296-304]
presentation by MHC class I molecule (H-2Db): is presented by the MHC class I molecule H-2Db
